In patent US12084521B2, “TLR9 inhibitors to suppress inflammatory response to pathogens” (University Of Maryland, Baltimore, priority 2018, dated 2024):
Entries after “also recorded” stand apart in the source; their conditions may differ. No end group written: not given here.

Columns and labels:
[1] = system: TLR1/2 signaling; test: TNFα mRNA in BMDM stimulated with Pam3C; type: cell-based, mouse; conditions: peptide 40 μM; P3C 0.33 μM; 1 h
Procedure: (§1) The cDNA obtained was amplified with gene-specific primers for mouse HPRT, TNFα, IL-10, IL-12-p40, or IL-6 and Fast SYBR Green™ master mix (Applied Biosystemsm) as previously described.
(§2) CPDPs 9R34 and 9R11 were examined for inhibition of TLR1/2, TLR4, and TLR7 signaling. BMDMs were stimulated with Pam3C, E. coli LPS, or R848 and TNFαmRNA was measured 1 hour after stimulation. Mouse BMDM were treated with 40 μM of the indicated peptides for 30 minutes prior to stimulation with ODN 1668 (1 μM), E. coli LPS (0.1 μg/mL), R848 (2.85 μM), or P3C (0.33 μM). R848 and P3C were used to specifically activate TLR7 and TLR2 signaling, respectively. TNFαmRNA expression was measured 1 h after ODN 1668 challenge and normalized to the expression of HPRT. See results in FIG. 8A, FIG. 8B, and FIG. 8C. […] The statistical significance of changes was determined by a one-way ANOVA test; *p<0.01.

[2] = system: TLR9-induced lethality; test: Survival of D-Gal pretreated mice after ODN 1668; type: in vivo, C57Bl/6J mice; conditions: ODN 1668 lower dose 3.93 nmol/mouse; peptide 200 nmol/mouse i.p.
Procedure: Systemic cytokine levels were measured in plasma samples obtained 1, 3, and 5 hours after intraperitoneal (i.p.) administration of 7.86 nmol (50 μg) of ODN 1668 or 67 nmol of Pam3C per mouse, using ELISA kits from Biolegend™ Inc. CPDP were dissolved in PBS and administered i.p. at the dose of 200 nmol per mouse 1 hour before administration of a TLR agonist. For survival experiments, mice were sensitized to TLR9 agonists by i.p. injection of 20 mg of D-Gal 30 minutes before administration of peptides or PBS. ODN 1668 was used at the doses of 3.93 or 7.86 nmol/mouse (25 or 50 μg/mouse) 1.5 hours after D-Gal. Animal survival was monitored for 50 hours. All agents were administered i.p. in 500 μL volume of PBS. Animals had free access to food and water during the observation period. All animal experiments were conducted in accordance with the national guidelines for the care and use of laboratory animals under a protocol that was approved by the UMB IACUC.
With the exception for LPS, administration of a purified TLR agonist is not lethal to mice. Mice, however, can be sensitized to TLR agonists by pretreatment with D-galactosamine (D-Gal). Survival of C57Bl/6J mice pretreated with D-galactosamine and challenged with different doses of ODN 1668 was tested. Mice were first administered with D-Gal intraperitoneally at the dose of 20 mg/mouse. Thirty minutes later mice were mock-treated with PBS or treated with a CPDP at the dose 200 nmol/mouse. ODN 1668 was administered 1 hour after peptide treatment at the dose of 3.93 or 7.86 nmol/mouse.

[3] = Stability and solubility of peptide solutions
[4] = system: TLR9 signaling; test: ODN 1668-induced cytokine secretion in BMDM supernatants (ELISA); type: cell-based, mouse; conditions: 5 hour supernatants, ODN 1668 1 μM
Procedure: (§3) Mouse TNFα and IL-12-p40 concentrations were measured in supernatants using ELISA kits from Biolegend™, Inc.
BMDMs were incubated in the presence of a decoy peptide for 30 minutes prior to stimulation with ODN 1668 (1 μM). The statistical significance of changes in cytokine levels was determined by the one-way ANOVA test; *p<0.01.

[5] = system: myDDosome; conditions: BMDM pretreated with CPDP; MyD88 IP, IRAK4 blot
Procedure: Four million BMDMs per well were plated in 6-well plates and treated with CPDP for 30 minutes prior to stimulation with ODN 1668 for 90 minutes. Cells were lysed in 600 p L of buffer containing 20 mM HEPES (pH 7.4), 150 mM NaCl, 10 mM NaF, 2 mM Na3VO4, 1 mM EDTA, 1 mM EGTA, 0.5% Triton X-100, 0.1 mM DTT, and protease inhibitor cocktail (Roche™). Cell extracts were incubated overnight with 1 μg of anti-mouse MyD88 antibody (AF3109) (R&D Systems™, followed by a 4-hour incubation with 20 μL protein G Sepharose beads (ThermoFisherm Scientific). The beads were then washed 3 times with 500 μL of lysis buffer and boiled in 60 μL of Laemmli sample buffer (Bio-Rad™). Cell extracts were electrophoresed on 10% acrylamide gel by SDS-PAGE and transferred to PVDF membrane (Bio-Rad™). Rabbit anti-MyD88 IgG was purchased from Cell Signaling™. Mouse anti-IRAK4 IgG was obtained from Abcam™. Alkaline phosphatase-conjugated secondary antibodies against mouse and rabbit IgG were purchased from Cell Signaling™. The stabilized substrate for alkaline phosphatase was from Promega™.
TLR stimulation causes formation of myDDosome, a signaling complex composed through interactions of IRAK and MyD88 death domains. To test if peptides inhibit myDDosome formation, MyD88 was immunoprecipitated from lysates of ODN-stimulated BMDM and the precipitates analyzed for IRAK4 presence. BMDM were lysed and lysates immunoprecipitated with anti-MyD88 Ab and immune complexes assessed with anti-IRAK4 Ab 3 hours after cell treatment with ODN 1668.

[6] = system: TLR7 signaling; test: TNFα mRNA in BMDM stimulated with R848; type: cell-based, mouse; conditions: peptide 40 μM; R848 2.85 μM; 1 h
Procedure: as §1, §2

[7] = system: TLR9 signaling; test: TNFα mRNA in BMDM at varying ODN 1668 concentration, comparison with INH-18; type: cell-based, mouse; conditions: inhibitor 30 min before varying ODN 1668, 1 hour
Procedure: To investigate inhibition of TLR9 signaling by 9R34 further, the following work was conducted. Mouse BMDMs were treated with the effective dose of either INH-18 (an ODN-based, competitive inhibitor of TLR9, commercially available through Invivogen™) or 9R34, 30 minutes prior to stimulation with varying concentration of ODN 1668. TNFα mRNA expression was measured 1 hour after ODN 1668 challenge and normalized to the expression of HPRT.

[8] = system: TLR4 signaling; test: LPS-induced TNFα secretion in BMDM (ELISA); type: cell-based, mouse; conditions: peptide 20 or 40 μM; E. coli LPS 0.1 μg/mL; 5 hour BMDM supernatants
Procedure: as §3
BMDM were treated with 20 or 40 μM of 9R34 for 30 minutes prior to stimulation with E. coli LPS (0.1 μg/mL). TNFαconcentration in supernatants was evaluated by ELISA 5 hours after cell stimulation. See results in FIG. 9. Data represent means±SEM of three independent experiments.

[9] = system: TLR9 signaling; test: ODN 1668-induced cytokine mRNA expression in BMDM (quantitative real time PCR); type: cell-based, mouse
Procedure: as §1
Mouse BMDMs were incubated in the presence of a 10, 20 or 40 μM decoy peptide for 30 minutes prior to stimulation with ODN 1668 (1 μM). […] Data represent the means±SEM of at least three independent experiments. The statistical significance of changes in cytokine mRNA was determined by a one-way ANOVA test; *p<0.001. Peptides 9R3 and 9R34 have overlapping sequences (see Table 1).
To investigate inhibition of TLR9 signaling by 9R34 analogues, the following work was performed. Mouse BMDMs were incubated in the presence of a 10, 20 or 40 μM decoy peptide for 30 minutes prior to stimulation with ODN 1668 (1 μM). Cytokine mRNA expression was measured 1 hour after ODN 1668 challenge and normalized to the expression of HPRT. See also Table 1. Data represent means±SEM of at least three independent experiments.

[10] = BMDM, peptide 10, 20 or 40 μM 30 min before ODN 1668 (1 μM), 1 hour, normalized to HPRT

GRWALRLCLEERD (also: antennapedia vector attached) [Peptide 9R34, tested as CPDP with antennapedia vector]
signaling induced by TLR1/2 agonist (TNFα mRNA) [1]: did not inhibit | protection of D-Gal pretreated mice (survival) [2]: full protection | stability of millimolar stock solutions [3]: unstable | stability of peptide solutions in the presence of high protein concentrations [3]: also unstable | secretion of IL-12-p40 ([4]; peptide 20 μM): also effective | production/secretion of TNFα ([4]; peptide 40 μM): decreased the production of TNFα | secretion of IL-12-p40 ([4]; peptide 40 μM): reduced secretion | ODN 1668-induced myDDosome formation [5]: prevented ODN 1668-induced myDDosome formation | signaling induced by TLR7 agonist (TNFα mRNA) [6]: did not inhibit | TNFα/HPRT mRNA expression ratio with increased concentrations of agonistic ODN [7]: efficient inhibition in a wider range of agonist concentrations | LPS-induced TNFα secretion [8]: did not reduce | TNFα mRNA expression ([9]; BMDM, peptide 10, 20 or 40 μM 30 min before ODN 1668 (1 μM), 1 hour after stimulation, normalized to HPRT): significantly suppressed | IL-10 mRNA expression [9, 10]: significantly suppressed | IL-12-p40 mRNA expression [9, 10]: significantly suppressed | inhibition of TLR9 signaling (ODN 1668-induced cytokine mRNA, overall) ([9]; BMDM, peptide 10, 20 or 40 μM, ODN 1668 1 μM): most potent inhibitor; also recorded: inhibit TLR9 signaling; also recorded: inhibited TLR9 signaling more potently than 9R3 | expression of all tested cytokines at lower peptide concentrations ([9]; peptide 10 or 20 μM): inhibited expression of all tested cytokines
